Experimental data published in ChEMBL document CHEMBL3046290, “Metabolic effects of benzylidene thiazolidinedione derivatives in high-fat fed mice” (Med Chem Res, 2012).

What was measured:
Mus musculus [1] = test: Toxicity in high-fat fed Mus musculus Swiss albino (mouse) assessed as change in body weight at 30 mg/kg, po qd for 15 days (reference value: 39.9 +/- 1.3 g); type: organism-based; set-up: dose 30 mg/kg, route oral; conditions: in vivo, 360 h
Mus musculus [2] = test: Antihyperglycemic activity in high-fat fed Mus musculus Swiss albino (mouse) assessed as reduction of insulin resistance index at 30 mg/kg, po qd for 15 days; type: functional; set-up: scale not given: the % may be the effect or the level left
Mus musculus [3] = test: Antihyperglycemic activity in high-fat fed Mus musculus Swiss albino (mouse) assessed as reduction of fasting serum insulin level at 30 mg/kg, po qd for 15 days; type: functional; set-up: scale not given: the % may be the effect or the level left
Mus musculus [4] = test: Antihyperlipidemic activity in high-fat fed Mus musculus Swiss albino (mouse) assessed as reduction of serum triglyceride level at 30 mg/kg, po qd for 15 days; type: functional; set-up: scale not given: the % may be the effect or the level left
Mus musculus [5] = test: Antihyperlipidemic activity in high-fat fed Mus musculus Swiss albino (mouse) assessed as reduction of serum cholesterol level at 30 mg/kg, po qd for 15 days; type: functional; set-up: scale not given: the % may be the effect or the level left
Mus musculus [6] = test: Antihyperglycemic activity in high-fat fed Mus musculus Swiss albino (mouse) assessed as reduction of fasting serum glucose level at 30 mg/kg, po qd for 15 days; type: functional; set-up: scale not given: the % may be the effect or the level left

Work on COc1ccc(/C=C2\SC(=O)N(Cc3ccc(C)cc3)C2=O)cc1 yielded an Activity (Mus musculus [1]) of 5.12 g, an Activity (Mus musculus [2]) of 81% and an Activity (Mus musculus [3]) of 65%. The Activity (Mus musculus [4]) was 44%, the Activity (Mus musculus [5]) was 27% and the Activity (Mus musculus [6]) was 46%.

In the case of COc1ccc(/C=C2\SC(=O)N(Cc3ccc(C)cc3)C2=O)c(OC)c1, the Activity (Mus musculus [1]) is reported as 6.06 g, the Activity (Mus musculus [2]) is reported as 57% and the Activity (Mus musculus [3]) is reported as 33%. The Activity (Mus musculus [4]) was 38%, the Activity (Mus musculus [5]) was 36% and the Activity (Mus musculus [6]) was 36%.

Molecule Cc1ccc(CN2C(=O)S/C(=C\c3ccc(N(C)C)cc3)C2=O)cc1 has an Activity (Mus musculus [1]) of 5.88 g, an Activity (Mus musculus [2]) of 73% and an Activity (Mus musculus [3]) of 56%. The Activity (Mus musculus [4]) was 23%, the Activity (Mus musculus [5]) was 22% and the Activity (Mus musculus [6]) was 38%.

Cc1ccc(CN2C(=O)S/C(=C\c3ccc(Cl)cc3)C2=O)cc1 was tested, and the Activity (Mus musculus [1]) was 6.71 g, the Activity (Mus musculus [2]) was 49% and the Activity (Mus musculus [3]) was 27%. The Activity (Mus musculus [4]) was 42%, the Activity (Mus musculus [5]) was 40% and the Activity (Mus musculus [6]) was 29%.

In the case of CN(CCOc1ccc(CC2SC(=O)NC2=O)cc1)c1ccccn1 (stereo not given) [ROSIGLITAZONE], the Activity (Mus musculus [1]) is reported as 5.28 g, the Activity (Mus musculus [2]) is reported as 71% and the Activity (Mus musculus [3]) is reported as 48%. The Activity (Mus musculus [4]) was 43%, the Activity (Mus musculus [5]) was 35% and the Activity (Mus musculus [6]) was 44%.
